Test results taken from publication PMC7793531 (International Journal of Molecular Sciences, 2020).
Starred links: 1 amine or outer side, 2 acyl side, 3 side chain; linkers in the order of their positions; H or OH if unused. Non-standard residues stand in square brackets, D forms with d. Residues, ends and D or L forms follow the SMILES beside them. Groups on a side chain read outwards from the residue. ξ: configuration not given here. *: point of attachment. Oic(3aξ,7aξ) = O=C(O)[C@@H]1CC2CCCCC2N1; X1 = N=C(N)NCCCC[C@H](N)CN*; Dab = NCC[C@H](N)C(=O)O; CO = O=C([*:1])[*:2]

Experiments:
[1] = molecular target: T1, VEGF-A165/NRP-2 complex (Homo sapiens, UniProt O60462); assay: Competitive ELISA-like assay, VEGF-A165/NRP-2 complex formation; type: binding; conditions: tested 0.1–10 µM
T1 construct: purchased R&D Systems
T1 sequence (O60462 23-864 limits assumed): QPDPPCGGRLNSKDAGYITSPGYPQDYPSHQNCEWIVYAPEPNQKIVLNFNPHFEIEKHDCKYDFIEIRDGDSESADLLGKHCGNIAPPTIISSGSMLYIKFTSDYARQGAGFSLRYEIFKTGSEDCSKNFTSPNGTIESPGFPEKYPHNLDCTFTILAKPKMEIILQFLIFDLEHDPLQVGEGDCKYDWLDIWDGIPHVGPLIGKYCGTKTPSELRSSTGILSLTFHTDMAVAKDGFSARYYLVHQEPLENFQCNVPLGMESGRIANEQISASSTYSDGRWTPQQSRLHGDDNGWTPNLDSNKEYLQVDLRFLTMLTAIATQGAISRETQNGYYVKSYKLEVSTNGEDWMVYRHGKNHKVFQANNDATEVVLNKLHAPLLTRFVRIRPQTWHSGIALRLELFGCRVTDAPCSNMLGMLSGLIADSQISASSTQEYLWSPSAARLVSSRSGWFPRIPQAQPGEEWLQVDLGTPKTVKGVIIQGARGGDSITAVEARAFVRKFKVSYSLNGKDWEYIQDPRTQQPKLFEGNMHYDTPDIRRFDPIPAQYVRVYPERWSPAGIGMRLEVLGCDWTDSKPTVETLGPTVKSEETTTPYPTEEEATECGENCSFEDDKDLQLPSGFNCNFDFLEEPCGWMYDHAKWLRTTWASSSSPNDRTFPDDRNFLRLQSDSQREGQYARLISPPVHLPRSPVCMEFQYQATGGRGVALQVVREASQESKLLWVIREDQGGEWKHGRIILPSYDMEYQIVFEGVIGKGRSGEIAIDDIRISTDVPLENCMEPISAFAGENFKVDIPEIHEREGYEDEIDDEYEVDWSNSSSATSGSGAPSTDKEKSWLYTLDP
Text: (§1) Amino acid sequence homology for primary structures of NRP-1 and NRP-2 is 44% [81, 82]. Structural studies have shown that both receptors bind VEGF-A165 using a conserved binding pocket core, formed by the b1 subdomain loops. VEGF-A165 interacts also with VEGF-R1 and R2 receptors by different fragments encoded by exons 1–5 [84, 85]. Affinity studies were done using modified ELISA-like assay, performed in the same manner as affinity tests for NRP-1 after optimization of method for individual protein. […] However, this value is more than two times higher compared to VEGF-A165/NRP-1 complex inhibition.
(§2) This method was previously described for NRP-1 [44, 45, 46]. […] Next, 100 µL chemiluminescent substrate was added, and luminescence was quantified using Tecan Infinite F200Pro microplate reader (Männedorf, Switzerland). […] Percentages of inhibition were calculated by the following formula:100% − [[(S − N)/(P − N)]∙100%](1) where S is the signal intensity measured in wells with urea–peptide hybrid. The IC50 of each urea–peptide hybrid was calculated using the nonlinear regression function with GraphPad Prism Version-5.01 (GraphPad Software, San Diego, CA, USA). […]

[2] = molecular target: T2, VEGF-A165/VEGF-R1 complex (Homo sapiens, UniProt P17948); assay: Competitive ELISA-like assay, VEGF-A165/VEGF-R1 complex formation; type: binding
T2 construct: purchased R&D Systems
T2 sequence (P17948 27-756 limits assumed, one chain of several): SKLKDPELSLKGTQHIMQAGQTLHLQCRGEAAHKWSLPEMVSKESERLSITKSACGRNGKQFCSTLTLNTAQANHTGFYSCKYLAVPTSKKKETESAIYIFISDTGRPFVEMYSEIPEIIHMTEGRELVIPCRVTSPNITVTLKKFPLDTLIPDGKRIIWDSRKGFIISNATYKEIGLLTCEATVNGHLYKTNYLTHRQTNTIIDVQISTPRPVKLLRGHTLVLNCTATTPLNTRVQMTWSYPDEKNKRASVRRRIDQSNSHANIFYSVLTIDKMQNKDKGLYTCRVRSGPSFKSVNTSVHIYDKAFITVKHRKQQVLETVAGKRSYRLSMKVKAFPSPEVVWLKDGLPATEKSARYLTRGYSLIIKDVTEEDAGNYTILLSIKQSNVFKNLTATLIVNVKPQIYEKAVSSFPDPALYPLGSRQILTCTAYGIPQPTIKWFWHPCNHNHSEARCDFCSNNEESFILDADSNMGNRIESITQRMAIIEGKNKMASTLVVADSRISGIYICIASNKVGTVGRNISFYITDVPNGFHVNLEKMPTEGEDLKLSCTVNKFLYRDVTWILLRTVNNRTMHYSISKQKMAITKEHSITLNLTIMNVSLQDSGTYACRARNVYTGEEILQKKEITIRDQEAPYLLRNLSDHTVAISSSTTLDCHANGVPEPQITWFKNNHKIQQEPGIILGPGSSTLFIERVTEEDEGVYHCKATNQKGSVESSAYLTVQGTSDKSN
Text: as §1, §2

N=C(N)NCCCC[C@H](N)CNC(=O)NCC[C@H](N)C(=O)N[C@@H](CCN)C(=O)N1C2CCCCC2C[C@H]1C(=O)N[C@@H](CCCNC(=N)N)C(=O)O (stereo partly drawn) [Compound 6, H-Dab(hArg^U)Dab-Oic-Arg-OH] (H-[Dab]([CO-X1])[Dab][Oic(3aξ,7aξ)]R-OH)
IC50 [1]: 480 nM
IC50, VEGF-A165/VEGF-R1 complex formation [2]: no affinity
